From PubChem BioAssay (NCI)
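Growth conditions: 96-well plates. Treatment: test compound, 48 hours, 5 concentrations. Analysis: linear interpolation between bracketing concentrations; unreached endpoints set to highest concentration. Abbreviation: GI50, concentration required for 50% inhibition of growth. At the TGI there is no net growth.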

How the values were obtained:
Experiment in all cases: NCI anticancer screen, dose series, 48 h
HCC-2998 colon = system: HCC-2998 colon
HOP-62 NSCLC = system: HOP-62 NSCLC
HL-60(TB) leukemia = system: HL-60(TB) leukemia
A549 NSCLC = system: A549 NSCLC
K-562 leukemia = system: K-562 leukemia
UO-31 renal = system: UO-31 renal
BT-549 breast = system: BT-549 breast
IGROV1 ovarian = system: IGROV1 ovarian
SNB-75 CNS = system: SNB-75 CNS
SR leukemia = system: SR leukemia

Row | SMILES | TGI (HCC-2998 colon) [µM] | TGI (HOP-62 NSCLC) [µM] | TGI (HL-60(TB) leukemia) [µM] | TGI (A549 NSCLC) [µM] | TGI (K-562 leukemia) [µM] | TGI (UO-31 renal) [µM] | TGI (BT-549 breast) [µM] | TGI (IGROV1 ovarian) [µM] | TGI (SNB-75 CNS) [µM] | TGI (SR leukemia) [µM] | GI50 (A549 NSCLC) [µM] | GI50 (SR leukemia) [µM] | GI50 (K-562 leukemia) [µM] | GI50 (UO-31 renal) [µM] | GI50 (IGROV1 ovarian) [µM]
1 | CC(C)(C)c1ccc(OCC(=O)O)c(Cl)c1 | > 100 | > 100 | > 100 | > 100 | > 100 | > 100 | > 100 | > 100 | > 100 |  |  |  |  |  | 
2 | Nc1nc(Nc2ccc(Cl)cc2)sc1C(=O)c1cccs1 |  | 53.6 | > 100 | > 100 |  | 95.9 | > 100 | > 100 |  | 14.9 |  |  |  |  | 
3 | O=C(OCc1ccccc1)C(Cc1ccccc1)N(Cc1ccccc1)Cc1ccccc1 (stereo unspecified) | > 100 | > 100 | > 100 | > 100 | > 100 | > 100 |  | > 100 | > 100 | > 100 |  |  |  |  | 
4 | COC(=O)C1=C(C)NC(C)=C([N+](=O)[O-])C1c1cccc(N=O)c1 (stereo unspecified) | 34.8 | 34.5 | > 100 | 40.1 | > 100 | 24.8 | 30.7 | 29.5 |  | > 100 |  |  |  |  | 
5 | c1ccc(C2=Nn3c(CCCCCCCCc4nnc5n4N=C(c4ccccc4)CS5)nnc3SC2)cc1 | > 100 | 44 |  | > 100 | > 79.7 | > 100 | > 100 | > 100 | 33.6 | > 100 |  |  |  |  | 
6 | CSC(SC)=C1C(=O)N(c2ccccc2)N=C1C | > 100 | > 100 |  | > 100 | 66.8 |  | 81.9 | 93.5 | > 100 |  |  |  |  |  | 
7 | COC(=O)C1=C(O)C(C(=O)OC)[C@@]2(O)[C@@H](C(=O)OC)[C@H](C)[C@@H](C)[C@@H]1[C@@H]2C(=O)OC (stereo partly specified) | > 100 | > 100 | > 100 |  | > 100 | > 100 | > 100 |  | > 100 | > 100 |  |  |  |  | 
8 | COc1cc([C@@H]2c3cc4c(cc3[C@@H](c3c(O)cc(O)c5c3O[C@H](c3ccc(O)c(O)c3)[C@@H](O)C5)[C@H]3COC(=O)[C@H]23)OCO4)cc(OC)c1O | > 100 | > 100 | > 100 | > 100 | > 100 |  | > 100 | > 100 |  |  |  |  |  |  | 
9 | CN(C)P(=O)(Oc1occc1C(O)Cc1ccccc1)N(C)C (stereo unspecified) | > 100 | > 100 |  | > 100 |  | > 100 | > 100 |  | > 100 |  |  |  |  |  | 
10 | COc1cc(CNc2nc3cc(C(F)(F)F)ccc3nc2-c2ccccc2)cc(OC)c1OC | 52.4 | > 100 | 70 | > 100 | > 100 | > 100 |  | > 100 | 44 | > 100 |  |  |  |  | 
11 | COc1cc2c(c(O)c1O)-c1ccc(OC)c(=O)cc1C(NC(C)=O)CC2 (stereo unspecified) | > 78.1 | > 100 | 5.29 | > 100 | 29.1 | > 100 |  | > 100 | 16.6 | 74.3 |  |  |  |  | 
12 | O=C1CCc2ccc3c(c21)CC1(Cc2ccccc2C1)C3 | 49.3 | > 100 | 7.03 | 29.6 |  | 34 | > 100 | > 100 | > 100 | 78.8 |  |  |  |  | 
13 | CCN1C(=O)N(CC)C2Nn3c(s/c(=C4\C(=O)N(C)c5ccccc54)c3=O)=NC21 (stereo unspecified) |  |  |  | > 100 | > 100 | > 100 |  | > 100 |  | > 100 | 5.08 | 0.978 | 0.727 | 2.82 | 3.37
14 | CCOC(=O)C(C)c1nc2c(Cl)c3ncccc3cc2[nH]c1=O (stereo unspecified) |  | > 100 |  | > 100 | > 100 | > 100 | > 100 | > 100 | > 100 | 99.2 |  |  |  |  | 
15 | OC1(c2ccc(Cl)cc2)c2ccc(CN3CCCC3)cc2C2=NCCN21 (stereo unspecified) |  | 29.2 | 29.1 | 33.3 | 45.2 | 27.5 | 21.3 | 28.7 | 18.5 | 33.1 |  |  |  |  | 
16 | CC/C(Cl)=N\OC(=O)Nc1ccc(F)c([N+](=O)[O-])c1 | > 100 | 35 |  | 43.4 | > 24.5 | 14.2 | 31.5 | 33.8 | 38.9 | > 68.6 |  |  |  |  | 
17 | O=C(c1ccccc1)N1C(=S)N=C(Nc2ccccc2)C1=Nc1ccccc1 | > 100 | > 100 | > 100 | > 100 | > 100 | > 100 |  | > 100 | > 100 | > 100 |  |  |  |  | 
18 | CC1(C)OC2CC(=O)OCC23C1CC(=O)C1(C)C3CCC2(C)C(c3ccoc3)OC(=O)C3OC321 (stereo unspecified) | > 125 | > 125 | > 125 | > 125 | > 70.3 | > 125 |  | > 125 | > 109 |  |  |  |  |  | 
19 | C[C@]12CC[C@H](O)C=C1CC[C@@H]1[C@@H]2CC[C@]2(C)C(c3ccc(=O)oc3)CC[C@]12O (stereo partly specified) | 0.208 | 0.0269 | < 0.0125 | 0.0172 | 0.405 | 0.041 |  | 0.164 | 0.0736 |  |  |  |  |  | 
20 | O=C1CS(=O)C23c4cc5ccccc5n4CCC2CCCN13 (stereo unspecified) |  | > 100 | > 100 | > 100 | > 100 |  | > 100 | > 100 |  | > 100 |  |  |  |  | 
21 | CC(C)(C)OC(=O)n1c(-c2ccccc2F)cc(=O)c2cc3c(cc21)OCO3 | > 32.3 | > 100 |  | > 39.7 | > 100 |  | > 100 |  | > 100 | > 34.6 |  |  |  |  | 
22 | O=[N+]([O-])c1ccc(C2=Nc3ccccc3SC(c3ccccc3)C2)cc1 (stereo unspecified) | 29 | 58.5 | 40 | 51.2 | 67.6 | 25.8 |  | 33.3 | 37.1 | 45.2 |  |  |  |  | 
23 | COC(=O)[C@H](C)NC(=O)[C@H](CSC)N1C(=O)N[C@@H](C(C)C)C1=O | > 100 | > 100 |  | > 100 | > 100 | > 100 | > 100 | > 100 | > 100 | > 100 |  |  |  |  | 
